These results are taken from publication PMC6040592 (Biochemistry, 2017).

Molecules are shown by their SMILES.

One experiment addresses HiGlpG (Haemophilus influenzae, UniProt P44783). The experiment in a line: Activity-based probe. To be noted: 50 μM.
The target of the next experiment is PsAarA (Providencia stuartii, UniProt P46116). Nature of the experiment: Activity-based probe. To be noted: 50 μM.
A further experiment has as its target wild-type GlpG (Escherichia coli, UniProt P09391). The following applies: 50 μM inhibitor, 23 °C overnight.
For experiment [1], the system named is AaROM. The experiment in a line: AaROM in vitro activity assay. Format: biochemical, Aquifex aeolicus.
For experiment [2], the target named is T1, E. coli GlpG (Escherichia coli, UniProt P09391).
T1 sequence (P09391 whole entry): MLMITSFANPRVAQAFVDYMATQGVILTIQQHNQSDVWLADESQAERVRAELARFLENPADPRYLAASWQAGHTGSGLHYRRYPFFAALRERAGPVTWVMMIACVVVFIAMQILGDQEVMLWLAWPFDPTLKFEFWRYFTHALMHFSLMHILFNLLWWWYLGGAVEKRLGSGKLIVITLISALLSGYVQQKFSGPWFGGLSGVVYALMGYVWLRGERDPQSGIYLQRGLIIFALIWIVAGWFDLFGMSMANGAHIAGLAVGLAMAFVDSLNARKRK
Another experiment has as its system TmROM. Nature of the experiment: Activity-based probe. To be noted: 50 μM.
In the next experiment the test system is MjROM. The experiment in a line: Activity-based probe. To be noted: 50 μM.
The subject of a further experiment is VcROM. The experiment in a line: Activity-based probe. To be noted: 50 μM.
Experiment [3] concerns the target neutrophil elastase, ELA2 (Homo sapiens, UniProt P08246). The following applies: same concentration range in which GlpG is inhibited.
In the next experiment the target is GlpG (Escherichia coli, UniProt P09391). To be noted: 1 h preincubation at 10 times IC50, 100-fold dilution, 100 min.
Sequence of GlpG (P09391 whole entry): as above
In experiment [4] the test system is AaROM. Nature of the experiment: Activity-based probe. The following applies: 50 μM.
Experiment [5] deals with T1, E. coli GlpG. Nature of the experiment: GlpG in vitro activity assay. Format: biochemical. To be noted: read-out: IC50 [μM] GlpG; inhibitor preincubated 30 min at 37 °C, Gurken substrate, 90 min.
The next experiment has as its target bovine chymotrypsin (Bos taurus, UniProt P00766). To be noted: read-out: IC50 α-chymotrypsin, value reported in the literature; cited from earlier work.
Experiment [6] has as its system nine different rhomboid proteases. The experiment in a line: Activity-based probe. Format: binding. To be noted: 50 μM.
The next experiment concerns rhomboids. To be noted: read-out: IC50 against rhomboids; isocoumarins; cited from earlier work.

Sequence of wild-type GlpG (P09391 whole entry): as above
Sequence of neutrophil elastase, ELA2 (P08246 30-267): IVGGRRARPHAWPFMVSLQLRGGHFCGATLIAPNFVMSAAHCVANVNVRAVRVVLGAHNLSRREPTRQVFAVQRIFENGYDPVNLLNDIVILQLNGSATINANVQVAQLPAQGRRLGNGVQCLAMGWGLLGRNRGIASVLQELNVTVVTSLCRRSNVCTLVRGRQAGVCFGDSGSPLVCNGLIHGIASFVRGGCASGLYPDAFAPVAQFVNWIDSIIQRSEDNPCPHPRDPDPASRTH
Sequence of HiGlpG (P44783 whole entry): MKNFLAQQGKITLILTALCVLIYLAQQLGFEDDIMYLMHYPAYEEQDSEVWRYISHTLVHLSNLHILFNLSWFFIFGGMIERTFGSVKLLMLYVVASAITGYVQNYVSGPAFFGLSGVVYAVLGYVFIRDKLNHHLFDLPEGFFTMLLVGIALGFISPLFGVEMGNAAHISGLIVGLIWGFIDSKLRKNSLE
Sequence of PsAarA (P46116 whole entry): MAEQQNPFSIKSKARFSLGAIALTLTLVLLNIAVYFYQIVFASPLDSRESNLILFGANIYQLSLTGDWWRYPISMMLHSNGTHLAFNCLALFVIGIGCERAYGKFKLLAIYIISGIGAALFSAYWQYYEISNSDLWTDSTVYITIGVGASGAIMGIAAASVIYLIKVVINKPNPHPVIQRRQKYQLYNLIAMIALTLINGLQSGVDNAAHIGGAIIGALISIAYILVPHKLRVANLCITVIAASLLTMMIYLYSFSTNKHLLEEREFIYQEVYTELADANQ

On to `O=C(OCN1C(=O)c2ccccc2S1(=O)=O)c1ccccc1Cl` [BSc5195], for which, on HiGlpG, the “inhibition of ABP labelling, HiGlpG” value is “active”. The “inhibition of ABP labelling, PsAarA” value on PsAarA is “active”. Further, the “mass shift of inhibitor-GlpG adduct” value at wild-type GlpG is 195 Da. Further, the “fold lower potency toward AaROM in comparison to GlpG” value in the experiment on AaROM [1] is recorded as “approximately 100 fold”. On E. coli GlpG [2], the “inhibition of ABP labelling, E. coli GlpG” value was “active”. Further, in the experiment with TmROM, the “inhibition of ABP labelling, TmROM” value is reported as “only partially inhibited”. In addition, in the experiment with MjROM, the “inhibition of ABP labelling, MjROM” value is listed as “active”. The “inhibition of ABP labelling, VcROM” value in the experiment on VcROM is recorded as “active”. The “inhibition of neutrophil elastase, ELA2” value in experiment [3] is listed as “appreciable inhibition”. Besides, at GlpG, the “recovery of GlpG activity after rapid dilution” value is “less but noticeable recovery of GlpG activity”. Further, the “inhibition of ABP labelling, AaROM” value in the experiment on AaROM [4] is reported as “only partially inhibited”.
As to `O=c1oc(Cl)c(Cl)c2ccccc12` [DCI, dichloroisocoumarin], the IC50 on E. coli GlpG [5] is 19 µM; at bovine chymotrypsin, 2.8 µM. The “inhibition of the activity of all nine rhomboids” value in [6] is listed as 80–100%.
With `COc1oc(=O)c2cc(N)ccc2c1Cl` [JLK-6, reference compound], the IC50 in the experiment with rhomboids is around 6 µM. The “recovery of GlpG activity after rapid dilution” value at GlpG is “No recovery of enzyme activity”.
